Data from the supplement of paper PMC10733146.

Legend:
Assay in all cases: viability relative to DMSO control (fraction); higher = less drug effect (more viable cells)
Settings in all cases: 48 h
[1] = system: primary AML patient cells (S021)
How it was run: (§1)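 The cells were primary mononuclear tumour cells, either fresh or cryopreserved, isolated by Ficoll from blood or bone marrow or derived from processed lymph node. Each well of a 384-well plate received 4 × 10^4 cells onto compounds pre-plated at five concentrations, with one well per concentration. The medium was RPMI-1640 with penicillin/streptomycin, L-glutamine and human serum, and plates stood at 37 °C and 5% CO2 for 48 h. Viability is reported as CellTiter-Glo luminescence relative to the median of 16 inner DMSO wells.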

[2] = system: primary FL patient cells (S087)
How it was run: as §1

[3] = system: primary ALL patient cells (S088)
How it was run: as §1

[4] = system: primary B-PLL patient cells (S016)
How it was run: as §1

[5] = system: primary BL patient cells (S005)
How it was run: as §1

[6] = system: primary AML patient cells (S056)
How it was run: as §1

[7] = system: primary AML patient cells (S060)
How it was run: as §1

[8] = system: primary AML patient cells (S017)
How it was run: as §1

[9] = system: primary AML patient cells (S011)
How it was run: as §1

[10] = system: primary AML patient cells (S012)
How it was run: as §1

[11] = system: primary MCL patient cells (S068)
How it was run: as §1

[12] = system: primary MCL patient cells (S063)
How it was run: as §1

[13] = system: primary ALL patient cells (S048)
How it was run: as §1

[14] = system: primary MCL patient cells (S053)
How it was run: as §1

[15] = system: primary FL patient cells (S022)
How it was run: as §1

[16] = system: primary AML patient cells (S081)
How it was run: as §1

[17] = system: primary CLL patient cells (S031)
How it was run: as §1

[18] = system: primary AML patient cells (S085)
How it was run: as §1

[19] = system: primary CLL patient cells (S043)
How it was run: as §1

[20] = system: primary AML patient cells (S006)
How it was run: as §1

Compound: O=C(O)CSc1cc(NS(=O)(=O)c2ccc(Br)cc2)c2ccccc2c1O [UMI-77]
- viability ([1]; 0.024 µM): 0.839
- viability ([1]; 0.12 µM): 0.917
- viability ([1]; 0.6 µM): 0.971
- viability ([1]; 3 µM): 0.961
- viability ([1]; 15 µM): 0.623
- viability ([2]; 0.024 µM): 0.936
- viability ([2]; 0.12 µM): 0.937
- viability ([2]; 0.6 µM): 0.923
- viability ([2]; 3 µM): 0.876
- viability ([2]; 15 µM): 0.256
- viability ([3]; 0.024 µM): 0.244
- viability ([3]; 0.12 µM): 0.291
- viability ([3]; 0.6 µM): 0.291
- viability ([3]; 3 µM): 0.316
- viability ([3]; 15 µM): 0.158
- viability ([4]; 0.024 µM): 1.11
- viability ([4]; 0.12 µM): 1.11
- viability ([4]; 0.6 µM): 0.994
- viability ([4]; 3 µM): 1.07
- viability ([4]; 15 µM): 0.778
- viability ([5]; 0.024 µM): 0.92
- viability ([5]; 0.12 µM): 0.902
- viability ([5]; 0.6 µM): 0.783
- viability ([5]; 3 µM): 0.812
- viability ([5]; 15 µM): 0.276
- viability ([6]; 0.024 µM): 0.838
- viability ([6]; 0.12 µM): 0.998
- viability ([6]; 0.6 µM): 0.836
- viability ([6]; 3 µM): 0.999
- viability ([6]; 15 µM): 0.434
- viability ([7]; 0.024 µM): 1.1
- viability ([7]; 0.12 µM): 1.13
- viability ([7]; 0.6 µM): 1.04
- viability ([7]; 3 µM): 1.03
- viability ([7]; 15 µM): 0.73
- viability ([8]; 0.024 µM): 1.01
- viability ([8]; 0.12 µM): 1.02
- viability ([8]; 0.6 µM): 0.983
- viability ([8]; 3 µM): 0.99
- viability ([8]; 15 µM): 0.436
- viability ([9]; 0.024 µM): 0.457
- viability ([9]; 0.12 µM): 0.654
- viability ([9]; 0.6 µM): 0.618
- viability ([9]; 3 µM): 0.47
- viability ([9]; 15 µM): 0.227
- viability ([10]; 0.024 µM): 1.07
- viability ([10]; 0.12 µM): 1.06
- viability ([10]; 0.6 µM): 1.09
- viability ([10]; 3 µM): 1.04
- viability ([10]; 15 µM): 0.715
- viability ([11]; 0.024 µM): 0.957
- viability ([11]; 0.12 µM): 0.817
- viability ([11]; 0.6 µM): 0.767
- viability ([11]; 3 µM): 0.666
- viability ([11]; 15 µM): 0.318
- viability ([12]; 0.024 µM): 1.06
- viability ([12]; 0.12 µM): 1.05
- viability ([12]; 0.6 µM): 0.974
- viability ([12]; 3 µM): 0.963
- viability ([12]; 15 µM): 0.701
- viability ([13]; 0.024 µM): 0.913
- viability ([13]; 0.12 µM): 0.88
- viability ([13]; 0.6 µM): 0.742
- viability ([13]; 3 µM): 0.582
- viability ([13]; 15 µM): 0.128
- viability ([14]; 0.024 µM): 1.07
- viability ([14]; 0.12 µM): 0.99
- viability ([14]; 0.6 µM): 0.818
- viability ([14]; 3 µM): 0.873
- viability ([14]; 15 µM): 0.191
- viability ([15]; 0.024 µM): 0.967
- viability ([15]; 0.12 µM): 0.981
- viability ([15]; 0.6 µM): 0.913
- viability ([15]; 3 µM): 0.897
- viability ([15]; 15 µM): 0.521
- viability ([16]; 0.024 µM): 0.934
- viability ([16]; 0.12 µM): 0.984
- viability ([16]; 0.6 µM): 0.919
- viability ([16]; 3 µM): 0.812
- viability ([16]; 15 µM): 0.329
- viability ([17]; 0.024 µM): 0.84
- viability ([17]; 0.12 µM): 0.875
- viability ([17]; 0.6 µM): 0.886
- viability ([17]; 3 µM): 0.878
- viability ([17]; 15 µM): 0.73
- viability ([18]; 0.024 µM): 0.887
- viability ([18]; 0.12 µM): 1.07
- viability ([18]; 0.6 µM): 0.905
- viability ([18]; 3 µM): 0.834
- viability ([18]; 15 µM): 1.53
- viability ([19]; 0.024 µM): 0.997
- viability ([19]; 0.12 µM): 0.981
- viability ([19]; 0.6 µM): 0.974
- viability ([19]; 3 µM): 0.979
- viability ([19]; 15 µM): 0.748
- viability ([20]; 0.024 µM): 1.07
- viability ([20]; 0.12 µM): 1.04
- viability ([20]; 0.6 µM): 0.979
- viability ([20]; 3 µM): 1.01
- viability ([20]; 15 µM): 0.467

Compound: CS(=O)(=O)c1ccc(C(=O)Nc2ccc(Cl)c(-c3ccccn3)c2)c(Cl)c1 [Vismodegib]
- viability ([1]; 0.024 µM): 0.893
- viability ([1]; 0.12 µM): 0.888
- viability ([1]; 0.6 µM): 0.886
- viability ([1]; 3 µM): 0.858
- viability ([1]; 15 µM): 0.808
- viability ([2]; 0.024 µM): 0.918
- viability ([2]; 0.12 µM): 0.898
- viability ([2]; 0.6 µM): 0.914
- viability ([2]; 3 µM): 0.92
- viability ([2]; 15 µM): 0.929
- viability ([3]; 0.024 µM): 0.762
- viability ([3]; 0.12 µM): 0.764
- viability ([3]; 0.6 µM): 0.779
- viability ([3]; 3 µM): 0.797
- viability ([3]; 15 µM): 0.862
- viability ([4]; 0.024 µM): 0.862
- viability ([4]; 0.12 µM): 0.917
- viability ([4]; 0.6 µM): 0.921
- viability ([4]; 3 µM): 0.857
- viability ([4]; 15 µM): 0.92
- viability ([5]; 0.024 µM): 1.12
- viability ([5]; 0.12 µM): 0.893
- viability ([5]; 0.6 µM): 1.12
- viability ([5]; 3 µM): 1.14
- viability ([5]; 15 µM): 0.824
- viability ([6]; 0.024 µM): 0.986
- viability ([6]; 0.12 µM): 1.07
- viability ([6]; 0.6 µM): 0.913
- viability ([6]; 3 µM): 0.783
- viability ([6]; 15 µM): 0.845
- viability ([7]; 0.024 µM): 0.945
- viability ([7]; 0.12 µM): 0.966
- viability ([7]; 0.6 µM): 0.97
- viability ([7]; 3 µM): 0.971
- viability ([7]; 15 µM): 0.997
- viability ([8]; 0.024 µM): 0.901
- viability ([8]; 0.12 µM): 0.922
- viability ([8]; 0.6 µM): 0.907
- viability ([8]; 3 µM): 0.927
- viability ([8]; 15 µM): 0.955
- viability ([9]; 0.024 µM): 0.771
- viability ([9]; 0.12 µM): 0.871
- viability ([9]; 0.6 µM): 1.11
- viability ([9]; 3 µM): 0.914
- viability ([9]; 15 µM): 0.92
- viability ([10]; 0.024 µM): 0.993
- viability ([10]; 0.12 µM): 1
- viability ([10]; 0.6 µM): 0.995
- viability ([10]; 3 µM): 0.936
- viability ([10]; 15 µM): 1
- viability ([11]; 0.024 µM): 0.891
- viability ([11]; 0.12 µM): 0.929
- viability ([11]; 0.6 µM): 0.949
- viability ([11]; 3 µM): 0.992
- viability ([11]; 15 µM): 1.07
- viability ([12]; 0.024 µM): 0.93
- viability ([12]; 0.12 µM): 0.956
- viability ([12]; 0.6 µM): 0.911
- viability ([12]; 3 µM): 0.925
- viability ([12]; 15 µM): 0.921
- viability ([13]; 0.024 µM): 0.921
- viability ([13]; 0.12 µM): 0.941
- viability ([13]; 0.6 µM): 0.933
- viability ([13]; 3 µM): 0.948
- viability ([13]; 15 µM): 1.1
- viability ([14]; 0.024 µM): 0.915
- viability ([14]; 0.12 µM): 0.932
- viability ([14]; 0.6 µM): 0.893
- viability ([14]; 3 µM): 0.9
- viability ([14]; 15 µM): 1.05
- viability ([15]; 0.024 µM): 0.868
- viability ([15]; 0.12 µM): 0.958
- viability ([15]; 0.6 µM): 0.886
- viability ([15]; 3 µM): 0.911
- viability ([15]; 15 µM): 0.971
- viability ([16]; 0.024 µM): 0.926
- viability ([16]; 0.12 µM): 0.946
- viability ([16]; 0.6 µM): 0.915
- viability ([16]; 3 µM): 0.923
- viability ([16]; 15 µM): 1
- viability ([17]; 0.024 µM): 0.85
- viability ([17]; 0.12 µM): 0.996
- viability ([17]; 0.6 µM): 0.889
- viability ([17]; 3 µM): 0.867
- viability ([17]; 15 µM): 0.897
- viability ([18]; 0.024 µM): 0.89
- viability ([18]; 0.12 µM): 0.925
- viability ([18]; 0.6 µM): 0.928
- viability ([18]; 3 µM): 0.952
- viability ([18]; 15 µM): 1.05
- viability ([19]; 0.024 µM): 0.915
- viability ([19]; 0.12 µM): 0.903
- viability ([19]; 0.6 µM): 0.923
- viability ([19]; 3 µM): 0.922
- viability ([19]; 15 µM): 0.965
- viability ([20]; 0.024 µM): 0.902
- viability ([20]; 0.12 µM): 0.951
- viability ([20]; 0.6 µM): 0.886
- viability ([20]; 3 µM): 0.885
- viability ([20]; 15 µM): 0.954
